In patent publication US7651978B2, “Selective herbicides based on a substituted phenylsulphonylaminocarbonyl-triazolinone” (Arysta LifeScience North America, LLC, priority 1998, dated 2010):

What was measured:
Format in all cases: in vivo
[1] = tested on: weeds, such as Alopecurus, Avena, Bromus, Digitaria, Echinochloa, Matricaria, Polygonum and Setaria; experiment: Pre-emergence test/greenhouse, summary over weeds; conditions: cf. Table A1
Experimental: Pre-Emergence Test/Greenhouse Solvent: 5 parts by weight of acetone Emulsifier: 1 part by weight of alkylaryl polyglycol ether To produce a suitable preparation of active compound, 1 part by weight of active compound is mixed with the stated amount of solvent, the stated amount of emulsifier is added and the concentrate is diluted with water to the desired concentration. Seeds of the test plants are sown in normal soil. After about 24 hours, the soil is sprayed with the preparation of active compound such that the particular amount of active compound desired is applied per unit area. The concentration of the spray liquor is chosen so that the particular amount of active compound desired is applied in 500 ml of water per hectare. After three weeks, the degree of damage to the plants is assessed in % damage in comparison to the development of the untreated control. […] Table A1). The considerable superiority of (I)-Na-salt over the comparative compound (G) is shown in Table A2 [“ai.”=“active ingredient”].

Alopecurus [2] = experiment: Post-emergence test/greenhouse; conditions: 504 h, after three weeks, read-out: degree of damage, Alopecurus; for pest or weed control at 60 g/ha: 60 g ai./ha; for pest or weed control at 250 g/ha: 250 g ai./ha
Experimental: (§1) Post-Emergence Test/Greenhouse [table] To produce a suitable preparation of active compound, 1 part by weight of active compound is mixed with the stated amount of solvent, the stated amount of emulsifier is added and the concentrate is diluted with water to the desired concentration. Test plants which have a height of 5-15 cm are sprayed with the preparation of active compound such that the particular amounts of active compound desired are applied per unit area. The concentration of the spray liquor is chosen so that the particular amounts of active compound desired are applied in 500 ml of water/ha. After three weeks, the degree of damage to the plants is assessed in % damage in comparison to the development of the untreated control. The figures denote: • 0%=no effect (like untreated control) • 100%=total destruction

Agropyron = experiment: Post-emergence test/greenhouse; conditions: 60 g ai./ha, after three weeks
Experimental: as §1

Lolium = experiment: Post-emergence test/greenhouse; conditions: 60 g ai./ha, after three weeks
Experimental: as §1

Setaria [3] = experiment: Post-emergence test/greenhouse; conditions: after three weeks
Experimental: as §1

Wheat [4] = experiment: Post-emergence test/greenhouse; conditions: post-emergence, 60 g ai./ha, after three weeks; 0%=no effect, 100%=total destruction
Experimental: as §1

Bromus [5] = experiment: Post-emergence test/greenhouse; conditions: 60 g ai./ha, after three weeks
Experimental: as §1

Avena [6] = experiment: Post-emergence test/greenhouse; conditions: after three weeks
Experimental: as §1

Alopecurus [7] = experiment: Pre-emergence test/greenhouse; conditions: 504 h, after three weeks, read-out: degree of damage, Alopecurus; for pest or weed control at 30 g/ha: 30 g of ai./ha
Experimental: (§2) Pre-Emergence Test/Greenhouse Solvent: 5 parts by weight of acetone Emulsifier: 1 part by weight of alkylaryl polyglycol ether To produce a suitable preparation of active compound, 1 part by weight of active compound is mixed with the stated amount of solvent, the stated amount of emulsifier is added and the concentrate is diluted with water to the desired concentration. Seeds of the test plants are sown in normal soil. After about 24 hours, the soil is sprayed with the preparation of active compound such that the particular amount of active compound desired is applied per unit area. The concentration of the spray liquor is chosen so that the particular amount of active compound desired is applied in 500 ml of water per hectare. After three weeks, the degree of damage to the plants is assessed in % damage in comparison to the development of the untreated control. The figures denote: • 0%=no effect (like untreated control) • 100%=total destruction

Digitaria = experiment: Pre-emergence test/greenhouse; conditions: 30 g of ai./ha, after three weeks
Experimental: as §2

Polygonum = experiment: Pre-emergence test/greenhouse; conditions: 30 g of ai./ha, after three weeks
Experimental: as §2

Matricaria = experiment: Pre-emergence test/greenhouse; conditions: 30 g of ai./ha, after three weeks
Experimental: as §2

Setaria [8] = experiment: Pre-emergence test/greenhouse; conditions: after three weeks
Experimental: as §2

Wheat [9] = experiment: Pre-emergence test/greenhouse; conditions: pre-emergence, 30 g of ai./ha, after three weeks; 0%=no effect, 100%=total destruction
Experimental: as §2

Echinochloa = experiment: Pre-emergence test/greenhouse; conditions: 30 g of ai./ha, after three weeks
Experimental: as §2

Bromus [10] = experiment: Pre-emergence test/greenhouse; conditions: 30 g of ai./ha, after three weeks
Experimental: as §2

Avena [11] = experiment: Pre-emergence test/greenhouse; conditions: 504 h, after three weeks, read-out: degree of damage, Avena; for pest or weed control at 30 g/ha: 30 g of ai./ha
Experimental: as §2

[12] = tested on: weeds, such as Agropyron, Alopecurus, Avena, Bromus, Lolium, Setaria and Veronica; experiment: Post-emergence test/greenhouse, summary over weeds; conditions: cf. Table B1
Experimental: as §1, with “[…] A considerable superiority of (I)-Na-salt (at 125 g/ha) over the comparative compounds (G) and (H) (in each case at 250 g/ha!) is shown in Table B2.” for “The figures denote: • 0%=no effect (like untreated control) • 100%=total destruction”

Veronica = experiment: Post-emergence test/greenhouse; conditions: 60 g ai./ha, after three weeks
Experimental: as §1

Compound	herbicidal activity (in words, compared with (I)-Na-salt) [1]	pest or weed control at 60 g/ha (Alopecurus [2])	degree of damage, Agropyron (Agropyron)	degree of damage, Lolium (Lolium)	degree of damage, Setaria (Setaria [3]; 60 g ai./ha)	degree of damage, Wheat (Wheat [4])	degree of damage, Bromus (Bromus [5])	degree of damage, Avena (Avena [6]; 60 g ai./ha)	pest or weed control at 30 g/ha (Alopecurus [7])	degree of damage, Digitaria (Digitaria)	degree of damage, Polygonum (Polygonum)	degree of damage, Matricaria (Matricaria)	degree of damage, Setaria (Setaria [8]; 30 g of ai./ha)	degree of damage, Wheat (Wheat [9])	degree of damage, Echinochloa (Echinochloa)	degree of damage, Bromus (Bromus [10])	pest or weed control at 30 g/ha (Avena [11])	herbicidal activity (in words, compared with (I)-Na-salt) [12]	degree of damage, Veronica (Veronica)	pest or weed control at 250 g/ha (Alopecurus [2])	also measured
CCn1c(OC)nn(C(=O)NS(=O)(=O)c2ccccc2OC(F)(F)F)c1=O [(A), 2-(2-Trifluoromethoxy-phenylsulphonylaminocarbonyl)-4-ethyl-5-methoxy-2,4-dihydro-3H-1,2,4-triazol-3-one]	considerably weaker herbicidal activity	0%	0%	0%	40%	0%	40%	0%	20%	0%	0%	0%	60%	0%	50%	40%	0%	considerably weaker herbicidal activity	–	–	–
COn1c(C)nn(C(=O)NS(=O)(=O)c2ccccc2OC(F)(F)F)c1=O [(C), 2-(2-Trifluoromethoxy-phenylsulphonylaminocarbonyl)-4-methoxy-5-methyl-2,4-dihydro-3H-1,2,4-triazol-3-one]	considerably weaker herbicidal activity	0%	0%	0%	0%	0%	0%	0%	0%	0%	0%	0%	0%	0%	0%	0%	0%	considerably weaker herbicidal activity	0%	–	–
COc1nn(C(=O)NS(=O)(=O)c2ccccc2OC(F)F)c(=O)n1C [(E), 2-(2-Difluoromethoxy-phenylsulphonylaminocarbonyl)-4-methyl-5-methoxy-2,4-dihydro-3H-1,2,4-triazol-3-one]	considerably weaker herbicidal activity	20%	60%	20%	–	0%	0%	70%	50%	40%	60%	0%	80%	0%	30%	0%	30%	considerably weaker herbicidal activity	30%	–	–
COc1nn(C(=O)NS(=O)(=O)c2ccccc2OC(F)(F)C(F)F)c(=O)n1C [(G), 2-[2-(1,1,2,2-Tetrafluoroethoxy)-phenylsulphonylaminocarbonyl]-4-methyl-5-methoxy-2,4-dihydro-3H-1,2,4-triazol-3-one]	–	–	–	–	–	–	–	–	–	–	–	–	–	–	–	–	–	–	–	30%	degree of damage, Setaria (Setaria [3]; 250 g ai./ha): 30%; degree of damage, Avena (Avena [6]; 250 g ai./ha): 0%; pest or weed control at 250 g/ha (Alopecurus [7]; 250 g ai./ha): 50%; degree of damage, Setaria (Setaria [8]; 250 g ai./ha): 50%; pest or weed control at 250 g/ha (Avena [11]; 250 g ai./ha): 0%
COc1nn(C(=O)NS(=O)(=O)c2ccccc2OC(F)(F)C(F)(F)F)c(=O)n1C [(H), 2-[2-(Pentafluoroethoxy)-phenylsulphonylaminocarbonyl]-4-methyl-5-methoxy-2,4-dihydro-3H-1,2,4-triazol-3-one]	–	–	–	–	–	–	–	–	–	–	–	–	–	–	–	–	–	–	–	40%	degree of damage, Setaria (Setaria [3]; 250 g ai./ha): 20%; degree of damage, Avena (Avena [6]; 250 g ai./ha): 80%
